Data published in ChEMBL document CHEMBL1201862, “PubChem BioAssay data set” (2004).
The source made the active and inactive calls.

Legend:
[1] = biological target: T1, Insulin-degrading enzyme (Homo sapiens, UniProt P14735); test: recombinant IDE activation, cell-free – biochemical, fluorescence polarization, counter-screen for IDE activator project, dose response (AID 588681)
T1 sequence (P14735 whole entry): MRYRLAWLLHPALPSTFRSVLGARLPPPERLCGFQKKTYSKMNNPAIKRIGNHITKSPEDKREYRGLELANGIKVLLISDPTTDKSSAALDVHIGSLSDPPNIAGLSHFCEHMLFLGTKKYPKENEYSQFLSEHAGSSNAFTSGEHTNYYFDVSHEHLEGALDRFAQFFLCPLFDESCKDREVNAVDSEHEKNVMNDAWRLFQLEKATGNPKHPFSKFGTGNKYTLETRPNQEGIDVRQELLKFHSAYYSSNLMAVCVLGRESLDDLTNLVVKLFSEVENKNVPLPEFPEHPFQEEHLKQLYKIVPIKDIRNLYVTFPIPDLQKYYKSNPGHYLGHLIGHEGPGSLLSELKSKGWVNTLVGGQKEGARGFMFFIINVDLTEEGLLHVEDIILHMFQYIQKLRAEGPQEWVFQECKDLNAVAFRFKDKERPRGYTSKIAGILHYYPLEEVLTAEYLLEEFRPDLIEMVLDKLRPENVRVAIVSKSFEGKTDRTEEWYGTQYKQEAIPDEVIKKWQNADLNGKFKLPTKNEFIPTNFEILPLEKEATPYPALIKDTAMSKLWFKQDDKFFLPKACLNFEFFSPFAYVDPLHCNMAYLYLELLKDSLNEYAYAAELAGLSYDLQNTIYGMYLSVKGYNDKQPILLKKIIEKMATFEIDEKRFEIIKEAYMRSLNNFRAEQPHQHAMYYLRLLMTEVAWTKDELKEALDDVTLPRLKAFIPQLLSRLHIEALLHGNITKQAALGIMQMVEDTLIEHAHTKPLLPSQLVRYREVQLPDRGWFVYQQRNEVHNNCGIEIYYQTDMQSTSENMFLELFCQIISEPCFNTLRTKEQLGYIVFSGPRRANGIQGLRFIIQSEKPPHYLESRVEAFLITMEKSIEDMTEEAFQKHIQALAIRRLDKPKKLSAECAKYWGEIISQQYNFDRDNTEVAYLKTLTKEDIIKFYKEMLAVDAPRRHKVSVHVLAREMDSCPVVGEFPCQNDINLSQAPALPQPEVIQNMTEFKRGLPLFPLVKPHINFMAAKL

[2] = biological target: T1, Insulin-degrading enzyme; test: cellular IDE activation of Abeta substrate cleavage – fluorescence polarization, HEK cells, dose response (AID 588439); format: functional, cell-based
[3] = tested on: HEK293; test: membrane integrity loss in HEK cells – cell-based, fluorescence, cytotoxicity control for IDE activator project, dose response (AID 588440); format: functional; details: Homo sapiens;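 note: cytotoxicity by LDH release measuring loss of membrane integrity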
[4] = tested on: HEK293; test: optical interference in Abeta FP readout, dose response, artefact control for IDE activator project, biochemical, fluorescence polarization (AID 588442); format: functional, cell-based; details: Homo sapiens
[5] = biological target: T2, Delta-type opioid receptor (Homo sapiens, UniProt P41143); test: HTS Image-Based Screen for Antagonists of the DOR Receptor. [Related pubchem assays (depositor defined):AID1777, AID1785, AID1786, AID2133]; format: functional
[6] = biological target: Mu-type opioid receptor (Homo sapiens, UniProt P35372); test: HTS Image-Based Screen for Agonists of the MOR Receptor. [Related pubchem assays (depositor defined):AID1777, AID1785, AID1786, AID2133]; format: functional;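 note: imaging of beta-arrestin GFP recruitment into spots after receptor activation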
[7] = tested on: Streptococcus sp. 'group A'; test: Streptococcus pyogenes SK(-)GAS viability under kanamycin – luminescence, BacTiterGlo, confirmation, counter-screen for streptokinase expression inhibitor project, dose response (AID 1900); format: functional, organism-based
[8] = biological target: T2, Delta-type opioid receptor; test: HTS Image-Based Screen for Agonists of the DOR Receptor. [Related pubchem assays (depositor defined):AID1777, AID1786, AID2133]; format: functional
[9] = biological target: T3, Streptokinase A (Streptococcus pyogenes serotype M1, UniProt P10520); test: viability-normalized secreted streptokinase activity reduction – plasminogen activation absorbance, OD405, dose response (AID 1914); format: functional, Streptococcus pyogenes M1 GAS;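 note: secreted streptokinase activity via plasminogen activation per viability signal from cell pellet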
T3 sequence (P10520 whole entry): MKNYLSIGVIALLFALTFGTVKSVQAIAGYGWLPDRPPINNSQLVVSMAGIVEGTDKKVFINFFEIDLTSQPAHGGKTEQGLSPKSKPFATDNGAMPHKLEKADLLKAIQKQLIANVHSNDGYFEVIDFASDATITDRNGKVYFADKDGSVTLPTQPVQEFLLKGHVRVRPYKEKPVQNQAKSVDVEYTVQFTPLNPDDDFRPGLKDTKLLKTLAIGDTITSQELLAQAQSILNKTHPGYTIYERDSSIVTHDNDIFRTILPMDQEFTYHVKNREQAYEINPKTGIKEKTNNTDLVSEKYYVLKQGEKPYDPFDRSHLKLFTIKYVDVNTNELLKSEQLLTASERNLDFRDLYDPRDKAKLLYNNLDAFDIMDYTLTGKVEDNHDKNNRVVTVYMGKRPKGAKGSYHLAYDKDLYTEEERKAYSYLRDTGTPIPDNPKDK

[10] = biological target: T4, Kappa-type opioid receptor (Homo sapiens, UniProt P41145); format: functional
[11] = biological target: Bifunctional protein GlmU (Mycobacterium tuberculosis, UniProt P9WMN3); test: Inhibitors of Mycobacterial Glucosamine-1-phosphate acetyl transferase (GlmU). Secondary screen.; design: species or system Mycobacterium tuberculosis H37Rv
[12] = biological target: Beta-galactosidase (Escherichia coli, UniProt Q8VNN2); format: functional
[13] = biological target: T4, Kappa-type opioid receptor; format: functional; remark: listed apart in the source
[14] = biological target: Induced myeloid leukemia cell differentiation protein Mcl-1 (Homo sapiens, UniProt Q07820); format: functional
[15] = tested on: Streptococcus; test: GAS UMAA2166 growth inhibition – luminescence, BacTiterGlo, counter-screen for streptokinase expression inhibitor project, dose response (AID 1915); format: functional, organism-based;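 note: potency for reduction of bacterial viability or growth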
[16] = tested on: CHO; test: CHO cell viability loss, potency – luminescence, cytotoxicity control for TLR9-MyD88 binding inhibitor project, dose response (AID 588339); format: functional, cell-based, hamster; details: Cricetulus griseus;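 note: CHO cells stably coexpressing TLR9 and MyD88 fusions from primary screen; compound exposure lasted 48 hours before viability readout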
[17] = biological target: T5, Replicative DNA helicase DnaB (Mycobacterium tuberculosis, UniProt P9WMR3); test: DnaB intein splicing inhibitors, dose response, biochemical, cell-free fluorescence (AID 449749); format: functional
T5 sequence (P9WMR3 whole entry): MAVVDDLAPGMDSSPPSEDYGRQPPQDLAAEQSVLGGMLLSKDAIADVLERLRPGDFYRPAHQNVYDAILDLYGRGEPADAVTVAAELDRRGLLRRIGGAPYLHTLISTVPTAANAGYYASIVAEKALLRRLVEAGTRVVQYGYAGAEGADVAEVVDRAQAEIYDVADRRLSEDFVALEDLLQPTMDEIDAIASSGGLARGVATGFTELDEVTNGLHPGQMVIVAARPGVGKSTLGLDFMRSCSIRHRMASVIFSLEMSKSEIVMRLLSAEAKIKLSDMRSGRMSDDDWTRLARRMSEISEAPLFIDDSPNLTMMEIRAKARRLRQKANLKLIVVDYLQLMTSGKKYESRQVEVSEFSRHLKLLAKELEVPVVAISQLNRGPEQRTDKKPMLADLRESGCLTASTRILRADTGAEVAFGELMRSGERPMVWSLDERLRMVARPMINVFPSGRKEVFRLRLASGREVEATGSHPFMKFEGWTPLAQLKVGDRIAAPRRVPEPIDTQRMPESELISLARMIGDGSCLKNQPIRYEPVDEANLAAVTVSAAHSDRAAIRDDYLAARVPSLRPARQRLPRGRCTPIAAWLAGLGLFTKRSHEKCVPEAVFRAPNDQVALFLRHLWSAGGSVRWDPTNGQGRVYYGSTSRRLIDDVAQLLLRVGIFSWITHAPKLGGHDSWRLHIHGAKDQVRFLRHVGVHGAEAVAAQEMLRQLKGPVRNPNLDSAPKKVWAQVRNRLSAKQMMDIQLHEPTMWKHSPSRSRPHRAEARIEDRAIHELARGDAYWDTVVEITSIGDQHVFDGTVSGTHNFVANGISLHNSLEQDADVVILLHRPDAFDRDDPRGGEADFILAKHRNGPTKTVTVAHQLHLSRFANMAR

[18] = biological target: T6, Protein RecA (Mycobacterium tuberculosis, UniProt P9WHJ3); test: Fluorescence Cell-Free Homogeneous Dose Retest to Identify Inhibitors of RecA-Intein Splicing Activity. [Related pubchem assays (depositor defined):AID2097, AID2223, AID489010, AID492950]; format: functional
T6 sequence (P9WHJ3 whole entry): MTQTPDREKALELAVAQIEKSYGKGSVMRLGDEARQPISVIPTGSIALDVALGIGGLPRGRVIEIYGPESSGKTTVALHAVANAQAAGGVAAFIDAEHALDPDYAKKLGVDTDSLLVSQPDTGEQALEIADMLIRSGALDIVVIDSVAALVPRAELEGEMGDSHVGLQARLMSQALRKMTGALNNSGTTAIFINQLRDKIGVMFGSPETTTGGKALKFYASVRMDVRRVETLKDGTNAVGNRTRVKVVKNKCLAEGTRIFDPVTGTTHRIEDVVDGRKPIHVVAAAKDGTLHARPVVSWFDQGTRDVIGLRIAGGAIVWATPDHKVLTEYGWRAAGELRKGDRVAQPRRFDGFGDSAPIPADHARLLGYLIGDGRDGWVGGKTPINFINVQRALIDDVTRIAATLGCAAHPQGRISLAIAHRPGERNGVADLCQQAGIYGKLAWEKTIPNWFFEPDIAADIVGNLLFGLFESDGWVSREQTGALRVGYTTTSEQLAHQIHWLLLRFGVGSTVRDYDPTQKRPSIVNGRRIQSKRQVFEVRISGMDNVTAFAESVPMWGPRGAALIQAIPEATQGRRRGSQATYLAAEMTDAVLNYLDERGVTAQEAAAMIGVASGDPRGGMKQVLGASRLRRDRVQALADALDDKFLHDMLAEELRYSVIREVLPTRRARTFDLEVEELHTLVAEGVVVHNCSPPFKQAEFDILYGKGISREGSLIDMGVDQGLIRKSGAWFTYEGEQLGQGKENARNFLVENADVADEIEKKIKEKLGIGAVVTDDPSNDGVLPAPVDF

[19] = biological target: Beta Lactamase (Pseudomonas aeruginosa, UniProt Q932Y6); test: BLA reporter interference, concentration series – BLA reporter cells, FRET fluorescence, artefact control for TLR9-MyD88 binding inhibitor project, dose response (AID 588341); format: cell-based;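 note: cell based assay in CHO-K1 cells stably expressing beta-lactamase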
[20] = biological target: T7, Fatty acid synthase (Homo sapiens, UniProt P49327); test: inhibition of human FAS-TE enzyme activity – biochemical, endpoint fluorescence intensity, uHTS hits, dose response (AID 624327); format: functional;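 note: fluorescence from hydrolysis of an O-methyl fluorescein acyl ester substrate by the enzyme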
[21] = biological target: T7, Fatty acid synthase; test: inhibition of human FAS-TE enzyme activity – biochemical, kinetic fluorescence intensity, dose response (AID 624326); format: functional;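 note: rate of fluorescence rise from hydrolysis of a fluorogenic O-methyl fluorescein ester substrate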

T7 sequence (P49327 whole entry): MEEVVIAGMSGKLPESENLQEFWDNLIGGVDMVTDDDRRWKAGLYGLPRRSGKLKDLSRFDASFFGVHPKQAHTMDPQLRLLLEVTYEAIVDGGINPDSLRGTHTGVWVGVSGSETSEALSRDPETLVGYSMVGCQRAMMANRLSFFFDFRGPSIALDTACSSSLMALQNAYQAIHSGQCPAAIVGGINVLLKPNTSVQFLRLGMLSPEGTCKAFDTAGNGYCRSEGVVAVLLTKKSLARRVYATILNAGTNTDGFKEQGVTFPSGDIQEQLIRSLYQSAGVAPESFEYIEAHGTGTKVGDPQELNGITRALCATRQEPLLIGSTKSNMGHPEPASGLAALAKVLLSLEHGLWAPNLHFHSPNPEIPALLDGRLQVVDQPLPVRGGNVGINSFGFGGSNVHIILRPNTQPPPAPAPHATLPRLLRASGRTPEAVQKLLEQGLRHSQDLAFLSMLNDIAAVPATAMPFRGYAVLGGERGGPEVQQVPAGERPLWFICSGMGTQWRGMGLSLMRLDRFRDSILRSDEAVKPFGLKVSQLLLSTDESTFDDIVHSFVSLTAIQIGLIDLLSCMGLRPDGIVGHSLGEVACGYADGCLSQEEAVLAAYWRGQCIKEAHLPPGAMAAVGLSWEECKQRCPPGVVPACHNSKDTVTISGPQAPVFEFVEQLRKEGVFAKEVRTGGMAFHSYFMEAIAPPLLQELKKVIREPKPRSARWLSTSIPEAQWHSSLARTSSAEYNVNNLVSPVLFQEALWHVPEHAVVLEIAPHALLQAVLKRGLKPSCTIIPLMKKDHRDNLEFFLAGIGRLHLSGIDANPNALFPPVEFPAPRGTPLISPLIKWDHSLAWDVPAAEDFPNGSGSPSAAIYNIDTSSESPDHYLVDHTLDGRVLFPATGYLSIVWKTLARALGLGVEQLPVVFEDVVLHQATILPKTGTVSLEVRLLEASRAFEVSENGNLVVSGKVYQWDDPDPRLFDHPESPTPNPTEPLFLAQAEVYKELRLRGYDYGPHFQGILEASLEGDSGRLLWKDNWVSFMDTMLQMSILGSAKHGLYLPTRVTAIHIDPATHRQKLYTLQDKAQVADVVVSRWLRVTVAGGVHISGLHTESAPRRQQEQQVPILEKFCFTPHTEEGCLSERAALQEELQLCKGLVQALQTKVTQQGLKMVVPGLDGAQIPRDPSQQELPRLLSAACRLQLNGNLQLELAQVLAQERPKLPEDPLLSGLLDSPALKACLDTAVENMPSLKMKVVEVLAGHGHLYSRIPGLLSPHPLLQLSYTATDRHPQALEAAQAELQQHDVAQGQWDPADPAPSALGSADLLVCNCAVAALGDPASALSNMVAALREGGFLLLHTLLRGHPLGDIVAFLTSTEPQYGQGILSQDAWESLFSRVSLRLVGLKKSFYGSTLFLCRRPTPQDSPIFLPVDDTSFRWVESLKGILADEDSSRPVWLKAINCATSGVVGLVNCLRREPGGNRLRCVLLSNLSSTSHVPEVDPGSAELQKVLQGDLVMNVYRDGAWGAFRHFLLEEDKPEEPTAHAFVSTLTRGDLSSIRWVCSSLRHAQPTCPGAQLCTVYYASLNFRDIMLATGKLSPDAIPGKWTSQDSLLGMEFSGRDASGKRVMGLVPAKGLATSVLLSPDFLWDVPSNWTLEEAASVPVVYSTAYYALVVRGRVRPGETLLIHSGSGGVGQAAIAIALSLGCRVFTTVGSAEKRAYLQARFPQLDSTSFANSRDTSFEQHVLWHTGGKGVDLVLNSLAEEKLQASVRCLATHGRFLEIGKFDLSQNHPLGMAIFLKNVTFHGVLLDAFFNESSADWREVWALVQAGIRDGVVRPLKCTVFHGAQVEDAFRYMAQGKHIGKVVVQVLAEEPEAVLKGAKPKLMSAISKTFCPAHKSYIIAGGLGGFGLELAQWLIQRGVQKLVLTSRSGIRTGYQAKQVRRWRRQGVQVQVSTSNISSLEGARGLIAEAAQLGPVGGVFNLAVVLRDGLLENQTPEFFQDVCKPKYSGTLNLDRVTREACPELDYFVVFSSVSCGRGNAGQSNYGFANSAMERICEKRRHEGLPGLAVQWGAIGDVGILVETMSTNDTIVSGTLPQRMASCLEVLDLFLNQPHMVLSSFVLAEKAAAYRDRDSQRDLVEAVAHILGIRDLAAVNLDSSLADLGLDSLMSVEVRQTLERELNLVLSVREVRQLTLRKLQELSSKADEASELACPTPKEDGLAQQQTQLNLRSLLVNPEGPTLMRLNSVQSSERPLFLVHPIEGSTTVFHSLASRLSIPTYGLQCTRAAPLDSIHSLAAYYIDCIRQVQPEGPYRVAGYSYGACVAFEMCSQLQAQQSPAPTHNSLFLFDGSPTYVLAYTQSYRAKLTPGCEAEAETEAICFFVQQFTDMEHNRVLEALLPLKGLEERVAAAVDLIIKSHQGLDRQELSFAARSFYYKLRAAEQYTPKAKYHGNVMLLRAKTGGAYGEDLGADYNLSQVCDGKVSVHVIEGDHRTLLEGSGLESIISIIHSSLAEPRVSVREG
T4 sequence (P41145 whole entry): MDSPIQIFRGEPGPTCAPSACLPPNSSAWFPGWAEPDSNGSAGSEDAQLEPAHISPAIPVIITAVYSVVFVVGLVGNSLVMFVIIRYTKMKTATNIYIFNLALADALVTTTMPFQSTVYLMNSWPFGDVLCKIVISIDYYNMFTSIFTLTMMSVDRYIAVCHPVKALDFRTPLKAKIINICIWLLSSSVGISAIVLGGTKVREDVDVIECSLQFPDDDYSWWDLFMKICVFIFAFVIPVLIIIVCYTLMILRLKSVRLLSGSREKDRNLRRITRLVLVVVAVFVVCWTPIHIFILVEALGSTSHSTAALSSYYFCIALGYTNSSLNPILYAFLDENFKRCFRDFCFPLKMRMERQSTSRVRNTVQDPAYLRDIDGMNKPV
T2 sequence (P41143 whole entry): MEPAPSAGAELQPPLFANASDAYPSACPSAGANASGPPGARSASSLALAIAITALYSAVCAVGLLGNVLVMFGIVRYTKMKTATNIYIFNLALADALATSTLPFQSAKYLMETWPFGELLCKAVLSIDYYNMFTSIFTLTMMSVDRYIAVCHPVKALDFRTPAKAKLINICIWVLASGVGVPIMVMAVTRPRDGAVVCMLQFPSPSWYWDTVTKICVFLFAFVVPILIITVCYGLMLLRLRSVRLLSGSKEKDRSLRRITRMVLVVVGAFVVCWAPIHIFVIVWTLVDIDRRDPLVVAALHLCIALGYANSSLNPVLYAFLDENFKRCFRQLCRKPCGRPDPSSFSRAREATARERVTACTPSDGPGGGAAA
Chain of Bifunctional protein GlmU (P9WMN3 whole entry): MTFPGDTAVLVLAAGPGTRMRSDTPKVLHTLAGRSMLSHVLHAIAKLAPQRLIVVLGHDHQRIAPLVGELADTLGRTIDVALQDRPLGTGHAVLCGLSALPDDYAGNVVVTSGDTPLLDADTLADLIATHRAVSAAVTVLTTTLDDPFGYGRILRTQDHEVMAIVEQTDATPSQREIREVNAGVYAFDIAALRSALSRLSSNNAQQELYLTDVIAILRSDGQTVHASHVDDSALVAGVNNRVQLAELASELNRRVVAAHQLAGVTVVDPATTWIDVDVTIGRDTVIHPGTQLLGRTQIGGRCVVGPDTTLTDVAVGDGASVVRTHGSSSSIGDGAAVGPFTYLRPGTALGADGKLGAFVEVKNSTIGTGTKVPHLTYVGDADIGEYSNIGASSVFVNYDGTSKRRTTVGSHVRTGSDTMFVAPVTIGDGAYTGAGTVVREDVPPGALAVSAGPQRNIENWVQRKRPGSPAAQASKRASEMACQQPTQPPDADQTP
Chain of Induced myeloid leukemia cell differentiation protein Mcl-1 (Q07820 whole entry): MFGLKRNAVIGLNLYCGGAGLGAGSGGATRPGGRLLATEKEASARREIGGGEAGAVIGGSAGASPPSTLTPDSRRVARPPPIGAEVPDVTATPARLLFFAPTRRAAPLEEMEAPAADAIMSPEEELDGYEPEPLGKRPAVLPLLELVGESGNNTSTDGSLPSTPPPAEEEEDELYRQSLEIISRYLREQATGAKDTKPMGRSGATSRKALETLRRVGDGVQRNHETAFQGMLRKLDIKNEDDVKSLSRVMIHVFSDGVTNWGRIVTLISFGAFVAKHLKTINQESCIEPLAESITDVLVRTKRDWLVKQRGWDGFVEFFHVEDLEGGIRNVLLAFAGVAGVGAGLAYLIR
Chain of Mu-type opioid receptor (P35372 whole entry): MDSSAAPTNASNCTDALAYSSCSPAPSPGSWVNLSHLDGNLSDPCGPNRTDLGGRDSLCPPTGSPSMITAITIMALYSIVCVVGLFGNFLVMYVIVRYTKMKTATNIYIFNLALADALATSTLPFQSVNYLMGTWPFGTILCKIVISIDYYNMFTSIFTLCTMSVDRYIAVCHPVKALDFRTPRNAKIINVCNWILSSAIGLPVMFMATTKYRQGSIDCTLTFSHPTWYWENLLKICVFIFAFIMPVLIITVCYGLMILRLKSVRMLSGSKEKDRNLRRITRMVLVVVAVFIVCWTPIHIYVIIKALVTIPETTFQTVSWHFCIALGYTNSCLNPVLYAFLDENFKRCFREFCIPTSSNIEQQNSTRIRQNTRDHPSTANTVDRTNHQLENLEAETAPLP
Chain of Beta Lactamase (Q932Y6 whole entry): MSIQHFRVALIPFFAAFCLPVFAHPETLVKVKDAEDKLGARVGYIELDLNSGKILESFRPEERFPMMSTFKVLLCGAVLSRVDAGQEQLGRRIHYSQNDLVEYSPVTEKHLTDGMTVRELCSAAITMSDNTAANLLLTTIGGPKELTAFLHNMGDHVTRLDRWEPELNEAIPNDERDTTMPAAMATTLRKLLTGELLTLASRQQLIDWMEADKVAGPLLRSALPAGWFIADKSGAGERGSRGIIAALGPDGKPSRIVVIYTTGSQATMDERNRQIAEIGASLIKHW

`O=C1CC2(CCCC2)CC(=O)N1c1ccccc1` was tested, and the EC50 [1] was > 54.7 µM (inactive), the EC50 [2] was > 54.7 µM (inactive) and the IC50 [3] was > 89.1 µM (inactive). The EC50 [4] was > 55.9 µM (inactive).

For `Cc1nnc(Sc2cc(NCCCO)c([N+](=O)[O-])c3nonc23)s1`, the IC50 [5] was > 32 µM (inactive), the EC50 [6] was > 32 µM (inactive) and the EC50 [7] was 6.33 µM (active). The EC50 [8] was > 32 µM (inactive), the EC50 [9] was 21.2 µM (inconclusive) and the IC50 [10] was 6.15 µM (active). For the same compound, the IC50 [11] was 77.8 µM (active), the EC50 [12] was > 31.5 µM (inactive) and the IC50 [13] was > 32 µM. The IC50 [14] was 3.11 µM (active), the EC50 [15] was 7.62 µM (active) and the IC50 [16] was 3.37 µM (active). For the same compound, the AC50 [17] was 2.07 µM (active), the EC50 [18] was 1.85 µM (active) and the IC50 [19] was 10.9 µM (inactive). The IC50 [20] was 3.78 µM (active) and the IC50 [21] was 3.99 µM (active).
